Test results: US20240208997A1, “CYCLIC BENZIMIDAZOLE DERIVATIVES AS CGAS INHIBITORS” (Boehringer Ingelheim International GmbH, priority 2022, published 2024)

Legend:
[1] = system: IFN induction in dsDNA-stimulated human whole blood; experiment: Human whole blood assay (hWB IC50), dsDNA stimulated, IFNα2α production; type: cell-based; details: Table 1
Protocol: 6.3 Method: Human Whole Blood Assay (Human WB IC50)
For the detection of cellular cGAS activity human whole blood was stimulated by transfection with double stranded DNA. Pathway activity was monitored by measuring the IFNα2α production.
Compounds were delivered as 10 mM DMSO solution and serially diluted and transferred to the 96-well cell culture plate (Corning #3595), prefilled with 20 μl OptiMEM (Gibco, #11058-021) in each well, using an Echo acoustic dispenser. Typically, 8 concentrations were used with the highest concentration at 10 μM in the final assay volume followed by ^˜1:5 dilution steps. DMSO concentration was set to 0.1% in the final assay volume. The 96-well assay plate contained 10 test compounds, and DMSO in control wells.
Collection of human whole blood from 3 or more healthy donors (male or female, no medication for 7 days except contraceptive and thyroxine) as Na-Citrate blood (e.g. 3.8% in Monovettes from Sarstedt) was conducted in parallel. Whole blood was kept at room temperature for a maximum of 3 hours after collection until use in the assay. 160 μl of the whole blood samples was transferred to each well of the 96-well assay plates filled with compound/OptiMEM. All assay plates were prepared as duplicates with blood from different donors. Blood plates were kept at room temperature for 60 minutes and continuous shaking with 450 rpm, covered with the lid, but not sealed.
20 μl OptiMEM and 9.6:1 Fugene was added to all low control wells.
After covering assay plates with aera seals and the lid, blood plates were kept at room temperature for 30 minutes and continuous shaking with 450 rpm, followed by an overnight incubation of 22 h at 37° C. in the incubator, without shaking.
For the detection of IFNα-2α in human plasma, the biotinylated capture antibody (Antibody set IFNA2, Meso Scale Diagnostics #B21VH-3, including coating and capture antibody) was diluted 1:17.5 in Diluent 100 (Meso Scale Diagnostics #R50AA-4), according to the manufacturer's directions. U-Plex MSD GOLD 96-well Small Spot Strepavidin SECTOR Plates (Meso Scale Diagnostics #L45SA-5) were coated with 25 μl diluted capture antibody. Coated plates were incubated for 60 min at room temperature under continuous shaking at 700 rpm. MSD IFNα-2α plates were washed three times with 150 μl wash buffer (1× HBSS, 0.05% Tween).
After blocking the plates with 100 μl block solution/well (1× HBSS with 0.2% Tween, 2% BSA) for 60 min at room temperature and continuous shaking at 700 rpm, plates were emptied as dry as possible by dumping just before continuing with the human plasma.
Whole Blood assay plates were centrifuged at 1600 rpm for 10 minutes. 25 μl of supernatant was transferred with a pipetting robot from each whole blood plate to the corresponding IFNα-2α plate. Plates were sealed with microplate seals and kept at room temperature again under continuous shaking at 700 rpm for two hours.
Next MSD IFNα-2α plates were washed three times with 150 μl wash buffer (1× HBSS, 0.05% Tween), before adding 25 μl MSD SULFO-TAG IFNα-2α Antibody solution (1:100 diluted in Diluent 3 (Meso Scale Diagnostics #R50AP-2) to each well of the plates.
Afterwards plates were sealed with microplate seals and kept at room temperature again under continuous shaking at 700 rpm for two hours. Finally, MSD IFNα-2α plates were washed three times with 150 μl wash buffer (1× HBSS, 0.05% Tween). 150 μl 2× Read buffer was added to each well and plates were immediately measured with the MSD Sector S600 Reader using the vendor barcode.
(§1) Data Evaluation and Calculation:
For data evaluation and calculation, % control calculation of each well was based on the mean of high (DNA stimulated control) and mean of low (unstimulated control) controls by using the following formula:
[counts(sample)−counts(low))/(counts(high)−counts(low))]*100
The IC50-values were calculated using the standard 4 parameter logistic regression formula. […]

[2] = system: IFN induction in cGAMP-stimulated THP1 cells; experiment: cGAMP stimulated counter cell assay in THP1-Dual cells (THP1(cGAMP) IC50); type: cell-based, human; details: Table 1; for IC50: Homo sapiens, THP-1, counter assay, 10 μM cGAMP stimulation, read-out: THP(cGAMP) IC50; for Ratio THP(cGAMP) IC50/THP(vir) IC50: selectivity for cGAS-inhibition
Source text: (§2) 6.2 Method: Human cGAS Cell Assay and cGAMP Stimulated Counter Cell Assay (THP1(vir) IC50 and THP1(cGAMP) IC50)
For the counter assay, cells were stimulated by cGAMP (SigmaAldrich #SML1232) to activate the identical pathway independent and directly downstream of cGAS (measurement of THP1(cGAMP) IC50).
(§3) Pathway activity was monitored by measuring the Lucia luciferase activity induced by either DNA stimulated cGAS enzyme activity (measurement of THP1(vir) IC50) or by cGAMP directly (measurement of THP1(cGAMP) IC50, counter assay).
(§4) Compounds were delivered in 10 mM DMSO solution, serially diluted and transferred to the 384 well assay plate (Greiner #781201) using an Echo acoustic dispenser. Typically, 8 concentrations were used with the highest concentration at 10 μM in the final assay volume followed by ^˜1:5 dilution steps. DMSO concentration was set to 1% in the final assay volume. The 384 well assay plate contained […] (column 1-22), and DMSO in column 23 and 24.
(§5) Cells, cultivated according to manufacturer conditions, were harvested by centrifugation at 300 g/10 min and were then resuspended and diluted to 1.66E5 cells/ml in fresh cell culture medium (RPMI 1640 (Gibco #A10491-01), 10% FCS (Gibco #10500), 1× GlutaMax (Gibco #35050-061), 1× Pen/Strep solution (Gibco #15140-122), 100 μg/ml Normocin (InvivoGen #ant-nr), 100 μg/ml Zeocin (InvivoGen #ant-zn), 10 μg/ml Blasticidin S (Life Technologies #A11139-03)). The baculovirus solution was then added 1:200 (have varied according to virus batch) to the cells (measurement of THP1(vir) IC50).
(§6) 30 μL of the cell/virus-mix were added to each well of the compound plate from column 1-23 via MultiDrop Combi dispenser (5000 cells/well). In column 24, 30 μl/5000 cells/well without virus were added as a low control.
(§7) The plates were then incubated for 18 h at 37° C. in a humidified incubator.
(§8) Following that, 15 μL of QuantiLuc detection reagent (InvivoGen #rep-qlcg5) were added to each well using a MultiDrop Combi. Measurement was done immediately after the addition using an EnVision reader (US-luminescence read-mode).
as §1
(§9) For data evaluation and calculation, the measurement of the low control was set as 0% control and the measurement of the high control was set as 100% control. The IC50 values were calculated using the standard 4 parameter logistic regression formula. Calculation: [y=(a−d)/(1+(x/c)^b)+d], a=low value, d=high value; x=conc M; c=IC50 M; b=slope

[3] = system: IFN induction in virus-stimulated THP1 cells; experiment: Human cGAS cell assay, virus-stimulated THP1-Dual cells (THP1(vir) IC50); type: cell-based; details: THP-1, 18 h, Table 1, baculovirus-stimulated THP1-Dual cells, Lucia luciferase, 18 h, read-out: THP(vir) IC50
Source text: as §2
THP1-Dual™ cells (InvivoGen #thpd-nfis) expressing IRF dependent Lucia luciferase reporter were used as basis for both assays. For the detection of cellular cGAS activity cells were stimulated by a baculovirus (pFastbac-1, Invitrogen, no coding insert) infection that delivers the cGAS enzyme stimulating double-stranded DNA (measurement of THP1(vir) IC50).
as §3, §4, §5, §6, §7, §8, §1, §9

| Structure (SMILES) | IC50 [1] | IC50 [2] | Ratio THP(cGAMP) IC50/THP(vir) IC50 [2] | IC50 [3] |
| --- | --- | --- | --- | --- |
| C[C@H]1CN2CC[C@@H]1n1c(nc3cc(F)ccc31)O[C@H]1C[C@@H](C(=O)O)N(C1)c1nc(nc3c1oc1cc(F)ccc13)C(F)(F)CCCCCC2=O [Example 1.15] | 3 nM | > 10000 nM | >1408 | 7.1 nM |
| C[C@H]1CN2CC[C@@H]1n1c(nc3ccccc31)O[C@H]1C[C@@H](C(=O)O)N(C1)c1nc(nc3c1oc1cc(Cl)ccc13)C(F)(F)CCCCCC2=O [Example 1.16] | 10 nM | 11000 nM | 1134 | 9.7 nM |
| C[C@H]1CN2CC[C@@H]1n1c(nc3ccccc31)O[C@H]1C[C@@H](C(=O)O)N(C1)c1nc(nc3c1oc1ccccc13)C(F)(F)CCCCC(F)(F)C2=O [Example 1.17] | 8 nM | 6600 nM | 519 | 13 nM |
| C[C@H]1CN2CC[C@@H]1n1c(nc3cc(F)ccc31)O[C@H]1C[C@@H](C(=O)O)N(C1)c1nc(nc3c1oc1ccccc13)C(F)(F)CCCCC(F)(F)C2=O [Example 1.18] | 10 nM | 10000 nM | 270 | 37 nM |
| C[C@H]1CN2CC[C@@H]1n1c(nc3ccccc31)O[C@H]1C[C@@H](C(=O)O)N(C1)c1nc(nc3c1oc1ccccc13)CCCCCC2=O [Example 1.19] | 18 nM | 11000 nM | 277 | 40 nM |
| CC1CCc2nc(c3oc4ccccc4c3n2)N2C[C@H](C[C@H]2C(=O)O)Oc2nc3cc(Cl)ccc3n2[C@H]2CCN(C[C@@H]2C)C(=O)CCO1 (stereo partly drawn) [Example 1.20] | 7 nM | > 10000 nM | >773 | 13 nM |
| C[C@H]1CN2CC[C@@H]1n1c(nc3cc(Cl)ccc31)O[C@H]1C[C@@H](C(=O)O)N(C1)c1nc(nc3c1oc1ccccc13)C(F)(F)CCCOCC2=O [Example 1.21] | 1 nM | > 10000 nM | >5238 | 1.9 nM |
| C[C@H]1CN2CC[C@@H]1n1c(nc3ccccc31)O[C@H]1C[C@@H](C(=O)O)N(C1)c1nc(nc3c1oc1cc(Cl)ccc13)C(F)(F)CCCOCC2=O [Example 1.22] | 4 nM | > 10000 nM | >6579 | 1.5 nM |
| C[C@H]1CN2CC[C@@H]1n1c(nc3ccccc31)O[C@H]1C[C@@H](C(=O)O)N(C1)c1nc(nc3c1oc1ccccc13)CCCC(C)(C)CCC2=O [Example 1.23] | 143 nM | 9500 nM | 51 | 190 nM |
